“Also recorded” adds a separate entry of the source.
Experiments:
[1] = system: kmt2d CRISPR mosaic mutants (F0); experiment: Jaw defects in kmt2d-CRISPR F0 mutants; assay type: in vivo, zebrafish; conditions: kmt2d-CRISPR F0, 100 nM, 5 dpf; listed as dmDf
Excerpt: Prior and current genetic zebrafish models of KS focused on the newly discovered rap1a/rap1b genes. However, from the perspective of clinical utility, dmDf should be efficacious in kmt2d mutants, since loss of function mutations of the human ortholog account for as much as 75% of KS (see, Ng, S. B. et al. Nat Genet 42, 790-3 (2010); Li, Y. et al. Hum Genet 130, 715-24 (2011); Lu, J., Mo, G., Ling, Y. & Ji, L. Mol Med Rep 14, 3641-5 (2016); Miyake, N. et al. Am J Med Genet A 161a, 2234-43 (2013)). Therefore, experiments supplemented the testing tools by creating a kmt2d CRISPR/Cas9 mutant. A guide RNA targeting exon 4 of kmt2d induced efficient (˜99%) Cas9-mediated genome editing (FIG. 8). […]
(§1) For convergence and extension (CE) phenotyping, embryos were scored as described (see, Leitch, C. C. et al. Nat Genet 40, 443-8 (2008)) at the 8-10 somite stage, and images were captured using an AZ100 microscope and NIS Elements software (Nikon). […] The distance between Meckel's (MK) and ceratohyal (CH) cartilages was measured on ventral bright field images with Image J (NIH). […] Fluorescence signal on embryo heads was imaged with the Nikon AZ100 microscope and DS-Qi1MC digital camera using […] Z-stacks to generate extended depth of focus images. Cell numbers were quantified using the ImageJ ICTN plugin (NIH). […]

[2] = system: kmt2d morphants; experiment: Brain cell proliferation (pHH3 immunostaining) in kmt2d morphants; assay type: in vivo, zebrafish; conditions: 100 nM, 2 dpf, listed as dmDf
Excerpt: Intellectual disability represents a major phenotype in KS, with some studies reporting almost 90% of patients to be affected (see, Wessels, M. W., et al. Clin Dysmorphol 11, 95-102 (2002)). […] Previous studies have shown that defects in proliferation in the developing zebrafish brain can be a proxy for neurodevelopmental and neurocognitive traits, especially in the context of microcephaly (see, Borck, G. et al. Genome Res 25, 609 (2015); Brooks, S. S. et al. Genetics 198, 723-33 (2014); O'Rawe, J. A. et al. Am J Hum Genet 97, 922-32 (2015); Wortmann, S. B. et al. Am J Hum Genet 96, 245-57 (2015)), a phenotype reported commonly in KS (see, Matsumoto, N. & Niikawa, N. Am J Med Genet C Semin Med Genet 117C, 57-65 (2003)).
as §1

In the case of `CC(C)c1nc(-c2cccc(NS(=O)(=O)c3c(F)cccc3F)c2F)c(-c2ccnc(N)n2)s1` [Compound 8, desmethyl-Dabrafenib], the “jaw defects (MK-CH distance)” value [1] is reported as “ameliorates the jaw defects; also recorded: ameliorated significantly” and the “total number of proliferating (pHH3+) cells in brain” value [2] is reported as “significantly increases pHH3+ proliferating cells; also recorded: restored the total number of proliferating cells to wild type levels”.
